Data from patent US20210087593A1, “N-[…] ALKALOID COMPOUNDS” (Willow BioSciences Inc., priority 2017, published 2021).

Columns and labels:
EsNMT = test: N-alkylation substrate screen using EsNMT (LC-MS); assay type: biochemical, Ephedra sinica; parameters: key to N-alkylation of substrate alkaloid compounds, Enzyme EsNMT: −=no detectable quantities of product N-alkylated compound; Trace, +, ++, +++=increasing relative levels of product N-alkylated compound; Trace, +, ++, +++=increasing relative levels of product N-alkylated compound; Trace, +, ++, +++=increasing relative levels of product N-alkylated compound; Trace, +, ++, +++=increasing relative levels of product N-alkylated compound; conditions: for N-alkylation of substrate alkaloid compounds, Enzyme EsNMT: 25 μg protein, 1 mM substrate, 1 mM SAM, 60 mM HEPES pH 8, 16 hours at 37° C., relative level of N-alkylated product by LC-MS; for N-alkylated alkaloid product detected after incubation with EsNMT (SEQ. ID NO: 2): incubated in accordance with Example 1, LC-MS
Description: The EsNMT coding sequence was amplified from Ephedra sinica cDNA using gene-specific primers containing restriction sites with Q5 HiFi DNA polymerase (NEB). Restriction digests and ligations (NEB) were carried out to generate a pQE plasmid (Qiagen) for heterologous expression of HIS6-tagged recombinant EsNMT. Protein overexpression was carried out at 18° C. in Escherichia coli SG13009 (Qiagen) grown in lysogeny broth (LB) to which 0.5 mM isopropyl β-D-1-thiogalactopyranoside (IPTG) was added.
(§1) Total soluble protein was extracted from each culture and the recombinant NMTs were purified using TALON cobalt affinity resin (Clontech) followed by desalting and concentration with Amicon Ultra-30 centrifugal filters (EMD Millipore). Protein concentration was determined using the Bradford method, and purity was assessed by SDS-PAGE followed by Coomassie staining.
(§2) Forty-four nitrogenous molecules were screened as potential substrates for EsNMT using a standardized assay (25 μg protein, 1 mM substrate, 1 mM SAM, 60 mM HEPES pH 8, 16 hours at 37° C.). In addition, a representative subset was screened as potential substrates for GfCNMT, GfTNMT and PsRNMT under identical conditions. For each substrate and enzyme combination, negative control assays were carried out using protein heated to 100° C. (boiled) for 20 minutes. Assays were quenched with 9 volumes of methanol, centrifuged to pellet insoluble debris and the supernatants were stored at −20° C. prior to analysis.
(§3) Assay supernatants were analyzed by liquid chromatography-mass spectrometry (LC-MS). LC-MS analysis was performed using a 1200 HPLC coupled with a 6410 triple-quadrupole MS (Agilent). Samples (2 μl) were injected onto a Luna […] Phenyl-Hexyl 100 Å HPLC column and analytes were eluted in a gradient of solvent A (0.1% Formic acid, 5% v/v methanol in water) and solvent B (0.1% Formic acid in methanol) at a flow rate of 300 μl per minute. The gradient began at 0% B, reached 35% B by 12 minutes, then increased to 85% B at 14 min and remained at that level until 18 minutes. Subsequently, the mixture returned to 0% B over a period of 3 minutes before a final 6 minute re-equilibration period. Analytes were applied to the mass analyzer using an electrospray ionization probe operating in positive mode with the following condition: capillary voltage, 4000V; fragmentor voltage, 100V, source temperature, 350° C.; nebulizer pressure, 50 PSI; gas flow 10 L/min. Ions were detected in full scan mode where quadrupoles 1 and 2 were set to RF only, whereas the third quadrupole scanned from 100-500 m/z over 525 milliseconds. Substrate acceptance by the enzymes was determined according to the formation of a peak with a 14-m/z increase in mass, corresponding to methylated substrate and a decrease in the substrate peak area, relative to the appropriate boiled control assay.
(§4) Each of the alkaloid substrates shown in Table 1 were incubated with the following N-alkyltransferases: GfCNMT (SEQ. ID NO: 3), gfTNMT (SEQ. ID NO: 4) and Ps RNMT ([…]) and EsNMT (SEQ. ID NO: 2), as described in Example 1. The presence of N-alkylated alkaloid product was detected as described in Examples 1-20. Legend: ND=Not Determined; −=no detectable quantities of product N-alkylated compound; and Trace, +, ++, +++=increasing relative levels of product N-alkylated compound.

PsRNMT = test: N-alkylation substrate screen using PsRNMT (LC-MS); assay type: biochemical, Papaver somniferum; parameters: key: −=no detectable quantities of product N-alkylated compound; Trace, +, ++, +++=increasing relative levels of product N-alkylated compound; Trace, +, ++, +++=increasing relative levels of product N-alkylated compound; Trace, +, ++, +++=increasing relative levels of product N-alkylated compound; Trace, +, ++, +++=increasing relative levels of product N-alkylated compound; conditions: 25 μg protein, 1 mM substrate, 1 mM SAM, 60 mM HEPES pH 8, 16 hours at 37° C.; relative level of N-alkylated product by LC-MS
Description: (§5) The GfCNMT, GfTNMT and PsRNMT coding sequences were amplified from Glaucium flavum (GfCNMT and GfTNMT) or Papaver somniferum (PsRNMT) cDNA using gene-specific primers containing attB recombination sites with Q5 HiFi DNA polymerase (NEB). Recombination reactions were carried out using BP and LR Clonase II (Thermo Scientific) to generate individual pDONR221 entry plasmids and, subsequently, individual pHGWA plasmids for heterologous expression of polyhistidine (HIS6)-tagged recombinant GfCNMT, GfTNMT and PsRNMT. Protein overexpression was carried out at 18° C. using E. coli ArcticExpress (Agilent) grown in Studier's autoinduction media.
as §1, §2, §3, §4

GfCNMT = test: N-alkylation substrate screen using GfCNMT (LC-MS); assay type: biochemical, Glaucium flavum; parameters: key: −=no detectable quantities of product N-alkylated compound; Trace, +, ++, +++=increasing relative levels of product N-alkylated compound; Trace, +, ++, +++=increasing relative levels of product N-alkylated compound; Trace, +, ++, +++=increasing relative levels of product N-alkylated compound; Trace, +, ++, +++=increasing relative levels of product N-alkylated compound; conditions: 25 μg protein, 1 mM substrate, 1 mM SAM, 60 mM HEPES pH 8, 16 hours at 37° C.; relative level of N-alkylated product by LC-MS
Description: as §5, §1, §2, §3, §4

GfTNMT = test: N-alkylation substrate screen using GfTNMT (LC-MS); assay type: biochemical, Glaucium flavum; parameters: key: −=no detectable quantities of product N-alkylated compound; Trace, +, ++, +++=increasing relative levels of product N-alkylated compound; Trace, +, ++, +++=increasing relative levels of product N-alkylated compound; Trace, +, ++, +++=increasing relative levels of product N-alkylated compound; Trace, +, ++, +++=increasing relative levels of product N-alkylated compound; conditions: 25 μg protein, 1 mM substrate, 1 mM SAM, 60 mM HEPES pH 8, 16 hours at 37° C.; relative level of N-alkylated product by LC-MS
Description: as §5, §1, §2, §3, §4

Molecule | N-alkylation of substrate alkaloid compounds, Enzyme EsNMT (EsNMT) | N-alkylated alkaloid product detected after incubation with EsNMT (SEQ. ID NO: 2) (EsNMT) | N-alkylation of substrate alkaloid compounds, Enzyme PsRNMT (PsRNMT) | N-alkylation of substrate alkaloid compounds, Enzyme GfCNMT (GfCNMT) | N-alkylation of substrate alkaloid compounds, Enzyme GfTNMT (GfTNMT)
Nc1ncnc2nc[nH]c12 [Adenine, adenine] | − | No N-alkylated alkaloid product compounds were detected |  |  | 
COc1ccc2c(c1)[nH]c1c(C)nccc12 [Harmine, harmine] | − | No N-alkylated alkaloid product compounds were detected | − | ++ | −
Nc1ccccc1C(=O)O [Anthrallic acid, anthranilic acid] | − | No N-alkylated alkaloid product compounds were detected |  |  | 
CN(C)c1ccc(C=O)cc1 [p-dimethylaminobenzaldehyde] | − | No N-alkylated alkaloid product compounds were detected |  |  | 
CC(N)C(O)c1ccccc1 (stereo not shown) [Norephedrine, norephedrine] | + |  | − | − | −
Oc1ccc(CC2NCCc3cc(O)c(O)cc32)cc1O (stereo not shown) [Norlaudanosoline, norlaudanosoline] | − | No N-alkylated alkaloid product compounds were detected |  |  | 
C[C@H](N)C(=O)c1ccccc1 [Cathinone, cathinone] | + |  |  |  | 
N[C@@H](Cc1ccc(O)c(O)c1)C(=O)O [3,4-dihydroxyphenylalanine] | − | No N-alkylated alkaloid product compounds were detected |  |  | 
COc1ccc(Cc2nccc3cc(OC)c(OC)cc23)cc1OC [Papaverine, papaverine, reference compound] | Trace |  |  |  | 
NCCS(=O)(=O)O [Taurine, taurine] | − | No N-alkylated alkaloid product compounds were detected |  |  | 
methylephedrine | + |  |  |  | 
CC[C@@H]1CN2CCc3c([nH]c4cccc(OC)c34)[C@@H]2C[C@@H]1/C(=C\OC)C(=O)OC [Mitragynine, mitragynine] | − | No N-alkylated alkaloid product compounds were detected |  |  | 
N[C@@H](Cc1ccccc1)C(=O)O [Phenylalanine, phenylalanine] | − | No N-alkylated alkaloid product compounds were detected |  |  | 
O=c1[nH]c(=O)c2ncn([C@@H]3O[C@H](CO)[C@@H](O)[C@H]3O)c2[nH]1 [Xanthosine, xanthosine] | − | No N-alkylated alkaloid product compounds were detected |  |  | 
CN1[C@@H]2CC[C@H]1CC(=O)C2 [Tropinone, tropinone] | − | No N-alkylated alkaloid product compounds were detected |  |  | 
C[C@H](N)[C@@H](O)c1ccccc1 [Norpseudoephedrine, norpseudoephedrine] | + |  |  |  | 
CC(N)c1ccccc1 (stereo not shown) [1-Phenylethaneamine, 1-phenylethan-1-amine] | − | No N-alkylated alkaloid product compounds were detected |  |  | 
NCCc1ccc(O)c(O)c1 [Dopamine, dopamine] | − | No N-alkylated alkaloid product compounds were detected |  |  | 
CN[C@@H](C)[C@H](O)c1ccccc1 [Ephedrine, ephedrine, reference compound] | + |  | − | − | 
CC1NCCc2cc(O)c(O)cc21 (stereo not shown) [THQ1, 1-methyl-6,7-dihydroxy-1,2,3,4-tetrahydroisoquinoline] | + |  |  |  | 
N[C@@H](Cc1ccc(O)cc1)C(=O)O [Tyrosine, tyrosine] | − | No N-alkylated alkaloid product compounds were detected |  |  | 
CNC(C)C(=O)c1ccccc1 (stereo not shown) [N-Methyl-cathinone, N-methyl-cathinone] | + |  |  |  | 
CNCC(O)c1ccc(O)cc1 (stereo not shown) [Synephrine, synephrine] | + |  |  |  | 
NCc1ccccc1 [Benzylamine, benzylamine] | − | No N-alkylated alkaloid product compounds were detected |  |  | 
NCC(O)c1ccc(O)cc1 (stereo not shown) [Octopamine, octopamine] | − | No N-alkylated alkaloid product compounds were detected |  |  | 
CC(C)(N)Cc1ccccc1 [Phentermine, phentermine, reference compound] | + |  |  |  | 
Cn1cnc2c1c(=O)[nH]c(=O)n2C [Theobromine, theobromine] | − | No N-alkylated alkaloid product compounds were detected |  |  | 
CN[C@@H](C)[C@@H](O)c1ccccc1 [Pseudoephedrine, pseudoephedrine, reference compound] | + |  |  |  | 
N[C@@H](Cc1c[nH]c2ccccc12)C(=O)O [Tryptophan, tryptophan] | − | No N-alkylated alkaloid product compounds were detected |  |  | 
